What all share (format): cell membranes
Assay [1] has as its target T1, Ras-related protein Rap-1A (Homo sapiens, UniProt P62834).
T1 sequence (P62834 whole entry): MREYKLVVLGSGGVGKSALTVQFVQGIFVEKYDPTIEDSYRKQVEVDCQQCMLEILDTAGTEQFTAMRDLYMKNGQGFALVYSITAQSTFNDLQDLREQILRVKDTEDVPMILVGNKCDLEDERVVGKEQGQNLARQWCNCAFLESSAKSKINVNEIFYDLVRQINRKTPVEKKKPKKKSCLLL
Nature of the assay: Binding affinity to RAP1A in human RBC membrane by surface plasmon resonance analysis with inverted configuration.

Assay [2] addresses T1, Ras-related protein Rap-1A. Nature of the assay: Binding affinity to RAP1A in human RBC membrane by Western blot analysis.
The target in assay [3] is T1, Ras-related protein Rap-1A. In words: Binding affinity to RAP1A in human RBC membrane by surface plasmon resonance analysis.

Take `C=CCC(=C)/C=C/[C@@](C)(O)[C@H]1O[C@@H]2C[C@@H]3O[C@@H]4C[C@@H]5O[C@@H]6C[C@@H]7O[C@@H]8C[C@@H]9O[C@@H]%10C[C@@H]%11O[C@](C)(CCO)[C@@H](O)C[C@H]%11O[C@H]%10C[C@H]9O[C@H]8CC[C@@]7(C)O[C@@]6(C)CC[C@H](C)[C@H]5O[C@H]4[C@@H](O)[C@@]3(C)O[C@H]2CC1=C` [DESULFO-YESSOTOXIN]: in assay [1], the dissociation constant (Kd) was determined as 0.5 µM.

With `C=CCC(=C)/C=C/[C@@](C)(O)[C@H]1O[C@@H]2C[C@@H]3O[C@@H]4C[C@@H]5O[C@@H]6C[C@@H]7O[C@@H]8C[C@@H]9O[C@@H]%10C[C@@H]%11O[C@](C)(CCOS(=O)(=O)O)[C@@H](OS(=O)(=O)O)C[C@H]%11O[C@H]%10C[C@H]9O[C@H]8CC[C@@]7(C)O[C@@]6(C)CC[C@H](C)[C@H]5O[C@H]4C[C@@]3(C)O[C@H]2CC1=C` [YESSOTOXIN], the Kd in assay [2] and in assay [3] was 4 µM each time.
